{"source": "patent US4912036A", "about": "“Rapid differentiation of bacteria using cyclic polypeptide antibiotics” (Eastman Kodak Company, priority 1986, dated 1990)", "key": {"[1]": {"test_system": "various bacteria which are found in the human urinary tract", "assay": "Differentiation with RIND VII, overall result", "type": "cell-based", "settings": "gramicidin S 10^-4 molar", "description": "(§1) TERGITOL 7 anionic surfactant was used to differentiate viable bacteria according to the prior art method. Various concentrations of TERGITOL 7 surfactant were mixed with a 10% glucose solution (50 μl), 3-(4,5-dimethyl-2-thiazolyl)-2,5-diphenyl-2N-tetrazolium bromide (MTT) (25 μl at 5 mg/ml methanol) or a RIND VII dispersion (1.5 ml) and phenazine methosulfate ETA (25 μl at 3 mg/ml methanol). The volume of each test solution was brought to 3 ml with potassium phosphate buffer. A cell suspension (100 μl at about 10^8 cells/ml) was then added. The solutions were incubated at 37° C. for 15 and 30 minutes in the presence of either E. coli, a gram(-) bacterium, or S. aureus, a gram(+) bacterium. The amount of dye formed was then determined visually, and graded as follows: \"O\" indicates no dye formation, +/- indicates faint dye formation, 1+ indicates light dye formation, 2+ indicates moderate dye formation, 3+ indicates strong dye formation, and 4+ indicates very strong dye formation.\nGramicidin S, a cyclic polypeptide antibiotic, was similarly used with RIND VII in the differentiation of various bacteria which are found in the human urinary tract. Assays were performed as described above. The final concentration of gramicidin S in each test was 10^-4 molar. […] Dye measurements were made at 635 nm and expressed below as the change in optical density (ΔOD) which was corrected for background."}, "P. aeruginosa [2]": {"test_system": "P. aeruginosa", "assay": "RIND XXIX reduction solution assay, Δ fluorescence", "type": "cell-based, Pseudomonas aeruginosa", "settings": "P. aeruginosa (gram -) about 5×10^7 cells/ml, gramicidin S 0.1 mg/ml, 37° C.", "description": "(§2) Bacterial suspensions were prepared by growing the cells in BHT broth to stationary phase overnight at 37° C. P. auruginosa was grown with agitation. About 40 ml of each overnight culture was centrifuged, decanted and washed once with 0.05 molar potassium phosphate buffer or 0.05 molar N-2-hydroxy-ethylpiperazine-N'-2-ethanesulfonic acid (HEPES) buffer, pH 7.8, and resuspended in buffer.\n(§3) Dispersions containing RIND compounds were prepared by dissolving the RIND compound in N,N-dimethylformamide (DMF) at 16 mg compound per ml of solvent. An aliquot (250 μl) of the resulting solution was added to 500 μl of TRITON X-100 surfactant. This mixture was then added dropwise with stirring to 25 ml of 0.05 molar HEPES buffer. A dispersion of RIND XXIX was prepared similarly except that DMF was acidified with 0.1% sulfuric acid. Compositions containing water-compatible RIND compounds were prepared as described above except the surfactant was omitted.\n(§4) Each test solution contained the following: dispersion of RIND XXIX (25 μl) prepared as described above, glucose (400 μl of 10% aqueous solution), tryptose (400 μl of 10% aqueous solution), trimethyl-1,4-benzoquinone ETA (500 μl of 1.5 mg/ml methanol). Aliquots (200 μl) of the mixture were mixed with solutions of the antibiotics (50 μl). The cell suspensions (50 μl) were then added. The final concentration of gramcidin S and tyrocidin were 0.1 mg/ml and 3.3 mg/ml, respectively. The final cell concentration was about 5×10^7 cells/ml. Cell control solutions contained all reagents except antibiotics. Background controls consisted of both buffer and solution controls. […]\n(§5) The solutions were incubated at 37° C. for 30 minutes, and the change in fluorescence emission (Δ fluorescence) was determined as the difference between the readings taken when the solutions were first mixed and then after 30 minutes incubation. Measurements were made in a commercially available MICROFLUOR Reader (available from Dynatech Laboratories, Alexandria, Virginia, U.S.A.), modified with an excitation filter at 540 nm, an emission filter at 620 nm and a Xenon lamp. […]"}, "P. aeruginosa [3]": {"test_system": "P. aeruginosa", "assay": "RIND VII reduction solution assay, ΔOD 635 nm", "type": "cell-based, Pseudomonas aeruginosa", "settings": "antibiotic 10^-4 molar", "description": "as §2\nas §1, with “formation. […]” for “formation.”"}, "[4]": {"test_system": "viable gram-positive and gram-negative bacteria", "assay": "Differentiation with dry analytical element, overall result", "type": "cell-based", "settings": "dry analytical element with RIND IX", "description": "The element used had the format and components illustrated below\nThe appropriate cell suspension (10 μl) was applied to the spreading/reagent layer of each element. The reflection density (DR) was measured at 640 nm. After 10 minutes of incubation at 37° C., the DR was again measured, giving a ΔDr value. A Control solution (10 μl of either 0.5 molar HEPES or potassium phosphate buffer) was also applied to the elements and the ΔDR was similarly determined. The difference between the two ΔDR values gives a test value corrected for background."}, "P. aeruginosa [5]": {"test_system": "P. aeruginosa", "assay": "DCIP reduction solution assay, ΔOD 620 nm", "type": "cell-based, Pseudomonas aeruginosa", "settings": "P. aeruginosa (-) 5×10^7, gramicidin S 0.00625 mg/ml, 37° C.", "description": "(§6) These examples illustrate the differentiation of bacteria using a tetrazolium salt and phenolic dye as the reducible compounds and two cyclic polypeptide antibiotics according to the present invention. The tetrazolium salt was 3-(4,5-dimethyl-2-thiazolyl) -2,5-diphenyl-2H-tetrazolium bromide (MTT) which forms a colored formazan dye when reduced. The phenolic dye was 2,6-dichloroindophenol (DCIP) which forms a colorless species when reduced.\n(§7) Solutions of the reducible compounds were prepared with the following: HEPES buffer (3 ml, 0.05 molar, pH 7.5), TRITON X-100 nonionic surfactant (1% concentration), glucose (50 μl of 10% in water), tryptose (50 μl of a 10% solution in water), MTT (25 μl of 5 mg/ml methanol) or DCIP (25 μl of 3 mg/ml methanol) and phenazine methosultate ETA (25 μl of 3 mg/ml methanol).\n(§8) Test solutions were prepared from the following: reducible compound solution from above (200 μl), 50 μl of either gramicidin S solution (6 mg/ml methanol and 9 ml of buffer) or tyrocidin solution (100 mg/ml methanol and 8 ml of buffer) and 50 μl of cell suspension. […] The change in optical density (ΔOD) was determined after 30 minutes at 37° C. at 540 nm for the MTT assay and at 620 nm for the DCIP assay using a commercially available spectrophotometer."}, "P. vulgaris": {"test_system": "P. vulgaris", "assay": "RIND XXIX reduction solution assay, Δ fluorescence", "type": "cell-based, Proteus vulgaris", "settings": "P. vulgaris (gram -) about 5×10^7 cells/ml, gramicidin S 0.1 mg/ml, 37° C.", "description": "as §2, §3, §4, §5"}, "E. cloacae": {"test_system": "E. cloacae", "assay": "DCIP reduction solution assay, ΔOD 620 nm", "type": "cell-based, Enterobacter cloacae", "settings": "E. cloacae (-) 5×10^7, gramicidin S 0.00625 mg/ml, 37° C.", "description": "as §6, §7, §8"}}, "data": [{"substance": "gramicidin S", "values": [{"measurement": "inhibition of reduction of the RIND compound, in words", "setting": "[1]", "result": "selectively inhibits the reduction of the RIND compound by viable gram-positive bacteria but not gram-negative bacteria"}, {"measurement": "Δ Fluorescence (30 Minutes)", "setting": "P. aeruginosa [2]", "result": "> 4000"}, {"measurement": "Corrected ΔOD (15 Minutes)", "setting": "P. aeruginosa [3]; P. aeruginosa 7 × 10^7 /ml", "result": 0.107}, {"measurement": "Corrected ΔOD (15 Minutes)", "setting": "P. aeruginosa [3]; P. aeruginosa, cell concentration 1.5 × 10^8 /ml", "result": "> 2.0"}, {"measurement": "differentiation between viable gram-positive and gram-negative bacteria in an element, in words", "setting": "[4]", "result": "can be used in an element to differentiate between viable gram-positive and gram-negative bacteria"}, {"measurement": "ΔOD, 620 nm after 30 Minutes", "setting": "P. aeruginosa [5]", "result": 1.040}, {"measurement": "Δ Fluorescence (30 Minutes)", "setting": "P. vulgaris", "result": 3491}, {"measurement": "ΔOD, 620 nm after 30 Minutes", "setting": "E. cloacae", "result": 0.997}]}]}
